From PubChem BioAssay (NCI) come the findings set out here.

Structures are written as SMILES.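 Cells were grown in 96-well plates and exposed to each compound for 48 hours at five concentrations; endpoints were interpolated linearly between bracketing concentrations, or set to the highest concentration if not reached. TGI denotes the concentration required for complete inhibition of growth.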

For the first assay, the system named is M14 melanoma. Put plainly: inhibition of tumour cell growth, NCI panel, 48 h.
The compound `COc1ccc(C(=O)/C=C/c2ccncc2)cc1OC` gave a TGI of 27.8 µM.

`CC(C)(C)NC(=O)N1N=C(c2ccccc2)C1c1ccccc1` (centres undefined) had a TGI above 100 µM.

The next assay deals with SK-MEL-5 melanoma. Put plainly: inhibition of tumour cell growth, NCI panel, 48 h.
The compound `Cc1ccc(-c2c3c(n(C4OC(CO)C(O)C(O)C4O)c(=S)c2C#N)CC(C)(C)CC3=O)cc1` (centres undefined) yielded a TGI above 100 µM.

`COc1ccc(C(OCC2OC(n3cc(C)c(=O)[nH]c3=O)CC2n2cc(Cn3cc(Br)c(=O)[nH]c3=O)nn2)(c2ccccc2)c2ccccc2)cc1` (centres undefined) gave a TGI above 100 µM.

`CC(NNC(=O)CC(=O)N(C(=O)c1ccccc1)c1ccc(Cl)cc1)c1cc2ccccc2oc1=O` (centres undefined) returned a TGI above 10 µM.

With `CC(C)(C)c1cc(C(=O)/C=C/C=C/c2ccccc2)cc(C(C)(C)C)c1O`, the TGI amounted to 37.2 µM.

`O=[N+]([O-])c1ccc(S(=O)(=O)N=Ic2ccccc2)cc1` came in with a TGI above 100 µM.

`O=C(O)CCN(CCC(=O)O)c1ccc(/C=C2\SC(=S)NC2=O)cc1` registered a TGI above 100 µM.

The compound `COc1ccc(C(=O)/C=C/c2ccncc2)cc1OC` yielded a TGI of 30.7 µM.

The compound `CC(C)(C)NC(=O)N1N=C(c2ccccc2)C1c1ccccc1` (centres undefined) registered a TGI of 47 µM.

Another assay deals with RXF 393 renal. Put plainly: inhibition of tumour cell growth, NCI panel, 48 h.
Compound `Cc1ccc(-c2c3c(n(C4OC(CO)C(O)C(O)C4O)c(=S)c2C#N)CC(C)(C)CC3=O)cc1` (centres undefined) registered a TGI above 100 µM.

The compound `COc1ccc(C(OCC2OC(n3cc(C)c(=O)[nH]c3=O)CC2n2cc(Cn3cc(Br)c(=O)[nH]c3=O)nn2)(c2ccccc2)c2ccccc2)cc1` (centres undefined) yielded a TGI above 100 µM.

Compound `CC(NNC(=O)CC(=O)N(C(=O)c1ccccc1)c1ccc(Cl)cc1)c1cc2ccccc2oc1=O` (centres undefined) gave a TGI above 10 µM.

`CC(C)(C)c1cc(C(=O)/C=C/C=C/c2ccccc2)cc(C(C)(C)C)c1O` registered a TGI of 15.1 µM.

`O=[N+]([O-])c1ccc(S(=O)(=O)N=Ic2ccccc2)cc1` yielded a TGI above 100 µM.

`O=C(O)CCN(CCC(=O)O)c1ccc(/C=C2\SC(=S)NC2=O)cc1` yielded a TGI above 100 µM.

The compound `O=C(NS(=O)(=O)OCC(Cl)(Cl)Cl)SCCC(F)(F)C(F)(F)C(F)(F)C(F)(F)C(F)(F)C(F)(F)F` yielded a TGI of 44.6 µM.

The compound `S=c1[nH]n2c(COc3cccc(OCc4nnc5sc(=S)[nH]n45)c3)nnc2s1` displayed a TGI above 100 µM.

In the case of `Cc1cn(CCCCCOC(=O)NC(CCCN=C(N)N)C(=O)O)c(=O)[nH]c1=O` (centres undefined), the TGI was above 100 µM.

Consider `COc1ccc(C(=O)/C=C/c2ccncc2)cc1OC`, for which the TGI amounted to 25.7 µM.

Turning to `CC(C)(C)NC(=O)N1N=C(c2ccccc2)C1c1ccccc1` (centres undefined), the TGI was determined as 36.6 µM.

The subject of a further assay is NCI-H23 lung. Put plainly: inhibition of tumour cell growth, NCI panel, 48 h.
`Cc1ccc(-c2c3c(n(C4OC(CO)C(O)C(O)C4O)c(=S)c2C#N)CC(C)(C)CC3=O)cc1` (centres undefined) returned a TGI above 100 µM.

With `COc1ccc(C(OCC2OC(n3cc(C)c(=O)[nH]c3=O)CC2n2cc(Cn3cc(Br)c(=O)[nH]c3=O)nn2)(c2ccccc2)c2ccccc2)cc1` (centres undefined), the TGI was above 100 µM.

`CC(NNC(=O)CC(=O)N(C(=O)c1ccccc1)c1ccc(Cl)cc1)c1cc2ccccc2oc1=O` (centres undefined) registered a TGI above 10 µM.

`CC(C)(C)c1cc(C(=O)/C=C/C=C/c2ccccc2)cc(C(C)(C)C)c1O` displayed a TGI above 100 µM.

The compound `O=[N+]([O-])c1ccc(S(=O)(=O)N=Ic2ccccc2)cc1` returned a TGI above 100 µM.

`O=C(O)CCN(CCC(=O)O)c1ccc(/C=C2\SC(=S)NC2=O)cc1`: the TGI is above 100 µM.

Compound `O=C(NS(=O)(=O)OCC(Cl)(Cl)Cl)SCCC(F)(F)C(F)(F)C(F)(F)C(F)(F)C(F)(F)C(F)(F)F` displayed a TGI of 40.6 µM.

In turn, `S=c1[nH]n2c(COc3cccc(OCc4nnc5sc(=S)[nH]n45)c3)nnc2s1` displayed a TGI above 100 µM.

As for `Cc1cn(CCCCCOC(=O)NC(CCCN=C(N)N)C(=O)O)c(=O)[nH]c1=O` (centres undefined), the TGI is above 100 µM.

Turning to `COc1ccc(C(=O)/C=C/c2ccncc2)cc1OC`, the TGI came out at 22.7 µM.

Consider `CC(C)(C)NC(=O)N1N=C(c2ccccc2)C1c1ccccc1` (centres undefined), for which the TGI was above 100 µM.

For the next assay, the system named is T-47D breast. Put plainly: inhibition of tumour cell growth, NCI panel, 48 h.
In turn, `Cc1ccc(-c2c3c(n(C4OC(CO)C(O)C(O)C4O)c(=S)c2C#N)CC(C)(C)CC3=O)cc1` (centres undefined) gave a TGI above 100 µM.

Compound `COc1ccc(C(OCC2OC(n3cc(C)c(=O)[nH]c3=O)CC2n2cc(Cn3cc(Br)c(=O)[nH]c3=O)nn2)(c2ccccc2)c2ccccc2)cc1` (centres undefined) came in with a TGI above 100 µM.

`CC(NNC(=O)CC(=O)N(C(=O)c1ccccc1)c1ccc(Cl)cc1)c1cc2ccccc2oc1=O` (centres undefined): the TGI is above 10 µM.

As for `CC(C)(C)c1cc(C(=O)/C=C/C=C/c2ccccc2)cc(C(C)(C)C)c1O`, the TGI was above 100 µM.

Turning to `O=[N+]([O-])c1ccc(S(=O)(=O)N=Ic2ccccc2)cc1`, the TGI was above 100 µM.

With `O=C(O)CCN(CCC(=O)O)c1ccc(/C=C2\SC(=S)NC2=O)cc1`, the TGI was above 100 µM.

In turn, `O=C(NS(=O)(=O)OCC(Cl)(Cl)Cl)SCCC(F)(F)C(F)(F)C(F)(F)C(F)(F)C(F)(F)C(F)(F)F` displayed a TGI of 98.4 µM.

The compound `S=c1[nH]n2c(COc3cccc(OCc4nnc5sc(=S)[nH]n45)c3)nnc2s1` yielded a TGI above 100 µM.

In turn, `Cc1cn(CCCCCOC(=O)NC(CCCN=C(N)N)C(=O)O)c(=O)[nH]c1=O` (centres undefined) gave a TGI above 100 µM.

`COc1ccc(C(=O)/C=C/c2ccncc2)cc1OC` displayed a TGI of 30.9 µM.

Regarding `CC(C)(C)NC(=O)N1N=C(c2ccccc2)C1c1ccccc1` (centres undefined), the TGI was above 100 µM.

For the next assay, the system named is HS 578T breast. Put plainly: inhibition of tumour cell growth, NCI panel, 48 h.
Regarding `Cc1ccc(-c2c3c(n(C4OC(CO)C(O)C(O)C4O)c(=S)c2C#N)CC(C)(C)CC3=O)cc1` (centres undefined), the TGI is above 100 µM.

For `COc1ccc(C(OCC2OC(n3cc(C)c(=O)[nH]c3=O)CC2n2cc(Cn3cc(Br)c(=O)[nH]c3=O)nn2)(c2ccccc2)c2ccccc2)cc1` (centres undefined), the TGI is above 100 µM.

Consider `CC(NNC(=O)CC(=O)N(C(=O)c1ccccc1)c1ccc(Cl)cc1)c1cc2ccccc2oc1=O` (centres undefined), for which the TGI is above 10 µM.

`CC(C)(C)c1cc(C(=O)/C=C/C=C/c2ccccc2)cc(C(C)(C)C)c1O` came in with a TGI above 100 µM.

`O=[N+]([O-])c1ccc(S(=O)(=O)N=Ic2ccccc2)cc1` returned a TGI above 100 µM.

The compound `O=C(O)CCN(CCC(=O)O)c1ccc(/C=C2\SC(=S)NC2=O)cc1` registered a TGI above 100 µM.

Regarding `O=C(NS(=O)(=O)OCC(Cl)(Cl)Cl)SCCC(F)(F)C(F)(F)C(F)(F)C(F)(F)C(F)(F)C(F)(F)F`, the TGI is 42.1 µM.

`S=c1[nH]n2c(COc3cccc(OCc4nnc5sc(=S)[nH]n45)c3)nnc2s1` came in with a TGI above 100 µM.

`Cc1cn(CCCCCOC(=O)NC(CCCN=C(N)N)C(=O)O)c(=O)[nH]c1=O` (centres undefined) showed a TGI of 71.9 µM.

As for `COc1ccc(C(=O)/C=C/c2ccncc2)cc1OC`, the TGI was found to be 36.7 µM.

`CC(C)(C)NC(=O)N1N=C(c2ccccc2)C1c1ccccc1` (centres undefined) had a TGI above 100 µM.
